In patent US6737383B1, “Herbicidal oxadiazolidines” (priority 1999, dated 2004):

Experiments:
sourgrass = test: Test D sourgrass; type: in vivo, Trichachne insularis; conditions: Preemergence, 0 to 100 scale
Summary of the method: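 Herbicide screen in the greenhouse. A non-phytotoxic solvent mixture with surfactant carried the test chemical; in pre-emergence tests it went onto the soil of pots seeded no more than a day earlier. Injury was scored by eye 14 to 21 days after application, 0 to 100.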

ivyleaf morningglory = test: Test C postemergence ivyleaf morningglory; type: in vivo, Ipomoea hederacea; conditions: 0 to 100 scale, 0 no effect, 100 complete control
Summary of the method: (§1)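 Visual ratings on a 0 to 100 scale, where 0 means no effect and 100 complete control, were made versus untreated controls roughly 14 to 21 days after postemergence treatment. Test compounds were formulated in a non-phytotoxic solvent mixture containing a surfactant.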

large crabgrass = test: Test C postemergence large crabgrass; type: in vivo, Digitaria sanguinalis; conditions: 0 to 100 scale, 0 no effect, 100 complete control
Protocol: (§2) Compounds evaluated in this test were formulated in a non-phytotoxic solvent mixture which included a surfactant and applied to plants that were grown for various periods of time before treatment (postemergence application). A mixture of sandy loam soil and greenhouse potting mix in a 60:40 ratio was used for the postemergence test.
(§3) Plantings of these crops and weed species were adjusted to produce plants of appropriate size for the postemergence test. All plant species were grown using normal greenhouse practices. Crop and weed species include arrowleaf sida (Sida rhombifolia), barnyardgrass (Echinochloa crus-galli), cocklebur (Xanthium strumarium), common ragweed (Ambrosia elatior), corn (Zea mays), cotton (Gossypium hirsutum), eastern black nightshade (Solanum ptycanthum), fall panicum (Panicum dichotomiflorum), field bindweed (Convolvulus arvensis), giant foxtail (Setaria faberii), hairy beggarticks (Bidens pilosa), ivyleaf morningglory (Ipomoea hederacea), johnsongrass (Sorghum halepense), ladysthumb smartweed (Polygonum persicaria), lambsquarters (Chenopodium album), large crabgrass (Digitaria sanguinalis), purple nutsedge (Cyperus rotundus), redroot pigweed (Amaranthus retroflexus), soybean (Glycine max), surinam grass (Brachiaria decumbens), velvetleaf (Abutilon theophrasti) and wild poinsettia (Euphorbia heterophylla).
(§4) Treated plants and untreated controls were maintained in a greenhouse for approximately 14, to 21 days, after which all treated plants were compared to untreated controls and visually evaluated. Plant response ratings, summarized in Table C, were based upon a 0 to 100 scale where 0 was no effect and 100 was complete control. A dash response (−) means no test result.

ladysthumb smartweed = test: Test C postemergence ladysthumb smartweed; type: in vivo, Polygonum persicaria; conditions: 0 to 100 scale, 0 no effect, 100 complete control
Summary of the method: as §1

giant foxtail = test: Test C postemergence giant foxtail; type: in vivo, Setaria faberii; conditions: 0 to 100 scale, 0 no effect, 100 complete control
Protocol: as §2, §3, §4

common ragweed = test: Test C postemergence common ragweed; type: in vivo, Ambrosia elatior; conditions: 0 to 100 scale, 0 no effect, 100 complete control
Protocol: as §2, §3, §4

[1] = tested on: Abutilon theophrasti (ABUTH); test: Test F preemergence, alone and in mixture with rimsulfuron, ABUTH; type: in vivo; conditions: 21 days after treatment, 0-100 scale
Protocol: (§5) Abutilon theophrasti (ABUTH), Chenopodium album (CHEAL), Amaranthus rudis (AMATA), Setaria faberii (SETFA), Panicum dichotomiflorum (PANDI), and Digitaria sanguinalis (DIGSA) were grown from seed in pots of an artificial potting mixture in a greenhouse. Compounds of the present invention were applied at 70 and 105 g ai/ha preemergence. Rimsulfuron was applied at 8.8 and 17.5 g ai/ha. Mixtures of the compounds of the present invention and rimsulfuron were also applied.
(§6) Following application, the plants were maintained by watering as needed. A fertilizer solution of Peter's 20-20-20 (10 pounds/5 gallons of water) plus Sprint 330, a Iron Chelate micronutrient, (113.5 grams/5 gallons of water) was injected into the water with an Anderson fertilizer injection system to provide approximately 219 ppm of nitrogen with each watering. Artificial lighting was used to supplement natural light to produce a 14 hour photoperiod and: an additional one hour light period was used between 1:00 am to 2:00 am for a night interruption. Greenhouse temperatures were targeted for 27° C. in the day and 21° C. at night. At 21 days after treatment, all plants were evaluated for injury as compared to control plants that were sprayed only with non-phytotoxic solvent.
(§7) Colby's equation was used to calculate the expected additive herbicidal effect of the mixtures of Compound 21 and the mixture partners listed above. […]

purple nutsedge = test: Test C postemergence purple nutsedge; type: in vivo, Cyperus rotundus; conditions: 0 to 100 scale, 0 no effect, 100 complete control
Protocol: as §2, §3, §4

eastern black nightshade = test: Test C postemergence eastern black nightshade; type: in vivo, Solanum ptycanthum; conditions: 0 to 100 scale, 0 no effect, 100 complete control
Protocol: as §2, §3, §4

velvetleaf = test: Test C postemergence velvetleaf; type: in vivo, Abutilon theophrasti; conditions: 0 to 100 scale, 0 no effect, 100 complete control
Summary of the method: as §1

wild poinsettia = test: Test C postemergence wild poinsettia; type: in vivo, Euphorbia heterophylla; conditions: 0 to 100 scale, 0 no effect, 100 complete control
Protocol: as §2, §3, §4

barnyardgrass = test: Test C postemergence barnyardgrass; type: in vivo, Echinochloa crus-galli; conditions: 0 to 100 scale, 0 no effect, 100 complete control
Summary of the method: as §1

arrowleaf sida = test: Test C postemergence arrowleaf sida; type: in vivo, Sida rhombifolia; conditions: 0 to 100 scale, 0 no effect, 100 complete control
Protocol: as §2, §3, §4

corn = test: Test C postemergence corn; type: in vivo, Zea mays; conditions: 0 to 100 scale, 0 no effect, 100 complete control
Summary of the method: as §1

Setaria faberii (SETFA) = test: Test F preemergence, alone and in mixture with rimsulfuron, SETFA; type: in vivo; conditions: 21 days after treatment, 0-100 scale
Protocol: as §5, §6, §7

[2] = Rate 64 g/ha, 0 no injury, 100 complete control
[3] = Alone: Cmpd. rate 70, Rimsulfuron 0
[4] = Alone: Cmpd. rate 105, Rimsulfuron 0

Cc1ccc(-n2c(=O)on(C(=O)N(c3ccc(F)cc3F)C(C)C)c2=O)c(C)c1 [Compound 24]
Plant response rating, Sourgrass (sourgrass; Rate 32 g/ha, 0 no injury, 100 complete control): 40 | Plant response rating, Sourgrass (sourgrass; [2]): 85 | Sourgrass plant response rating (sourgrass; [2]): 100 | Sourgrass plant response rating (sourgrass; Rate 125 g/ha, 0 no injury, 100 complete control): 100 | Plant response rating, Sourgrass (sourgrass; Rate 250 g/ha): 100 | Plant response rating, Sourgrass (sourgrass; Rate 500 g/ha): 100

CC(C)N(C(=O)n1oc(=O)n(C(C)C)c1=O)c1ccccc1 [Compound 113]
Plant response rating I. morningglory (ivyleaf morningglory; Rate 140 g/ha): 10 | Plant response rating I. morningglory (ivyleaf morningglory; Rate 280 g/ha): 50 | Plant response rating I. morningglory (ivyleaf morningglory; Rate 560 g/ha): 50 | Plant response rating I. morningglory (ivyleaf morningglory; Rate 1120 g/ha): 50 | Plant response rating, Large crabgrass (large crabgrass; Rate 140 g/ha): 0 | Plant response rating, Large crabgrass (large crabgrass; Rate 280 g/ha): 85 | Plant response rating, Large crabgrass (large crabgrass; Rate 560 g/ha): 95 | Plant response rating, Large crabgrass (large crabgrass; Rate 1120 g/ha): 95 | Plant response rating Ladysthumb (ladysthumb smartweed; Rate 140 g/ha): 0 | Plant response rating Ladysthumb (ladysthumb smartweed; Rate 280 g/ha): 0 | Plant response rating Ladysthumb (ladysthumb smartweed; Rate 560 g/ha): 85 | Plant response rating Ladysthumb (ladysthumb smartweed; Rate 1120 g/ha): 85 | Plant response rating, Giant foxtail (giant foxtail; Rate 140 g/ha): 20 | Plant response rating, Giant foxtail (giant foxtail; Rate 280 g/ha): 70 | Plant response rating, Giant foxtail (giant foxtail; Rate 560 g/ha): 80 | Plant response rating, Giant foxtail (giant foxtail; Rate 1120 g/ha): 80 | Plant response rating Common ragweed (common ragweed; Rate 140 g/ha): 5 | Plant response rating Common ragweed (common ragweed; Rate 280 g/ha): 5 | Plant response rating Common ragweed (common ragweed; Rate 1120 g/ha): 20 | ABUTH Observed [1, 3]: 45% | ABUTH Observed [1, 4]: 65% | Plant response rating, Purple nutsedge (purple nutsedge; Rate 140 g/ha): 0 | Plant response rating, Purple nutsedge (purple nutsedge; Rate 280 g/ha): 10 | Plant response rating, Purple nutsedge (purple nutsedge; Rate 560 g/ha): 0 | Plant response rating, Purple nutsedge (purple nutsedge; Rate 1120 g/ha): 10 | Plant response rating E. blacknightsh (eastern black nightshade; Rate 140 g/ha): 50 | Plant response rating E. blacknightsh (eastern black nightshade; Rate 280 g/ha): 50 | Plant response rating E. blacknightsh (eastern black nightshade; Rate 1120 g/ha): 95 | Plant response rating, Velvetleaf (velvetleaf; Rate 140 g/ha): 0 | Plant response rating, Velvetleaf (velvetleaf; Rate 280 g/ha): 0 | Plant response rating, Velvetleaf (velvetleaf; Rate 560 g/ha): 60 | Plant response rating, Velvetleaf (velvetleaf; Rate 1120 g/ha): 75 | Plant response rating Wild poinsettia (wild poinsettia; Rate 140 g/ha): 10 | Plant response rating Wild poinsettia (wild poinsettia; Rate 280 g/ha): 50 | Plant response rating Wild poinsettia (wild poinsettia; Rate 560 g/ha): 80 | Plant response rating Wild poinsettia (wild poinsettia; Rate 1120 g/ha): 95 | Plant response rating, Barnyardgrass (barnyardgrass; Rate 140 g/ha): 80 | Plant response rating, Barnyardgrass (barnyardgrass; Rate 280 g/ha): 80 | Plant response rating, Barnyardgrass (barnyardgrass; Rate 560 g/ha): 85 | Plant response rating, Barnyardgrass (barnyardgrass; Rate 1120 g/ha): 95 | Plant response rating Arrowleaf sida (arrowleaf sida; Rate 140 g/ha): 30 | Plant response rating Arrowleaf sida (arrowleaf sida; Rate 280 g/ha): 40 | Plant response rating Arrowleaf sida (arrowleaf sida; Rate 560 g/ha): 70 | Plant response rating Arrowleaf sida (arrowleaf sida; Rate 1120 g/ha): 95 | Plant response rating, Corn (corn; Rate 140 g/ha): 0 | Plant response rating, Corn (corn; Rate 280 g/ha): 40 | Plant response rating, Corn (corn; Rate 560 g/ha): 45 | Plant response rating, Corn (corn; Rate 1120 g/ha): 60 | SETFA Observed (Setaria faberii (SETFA); [3]): 60% | SETFA Observed (Setaria faberii (SETFA); [4]): 65%
